90 sequences from the OligoGym collection can be followed below.

Several values for one entry are separate records, joined by “and”; a condition that tells them apart may be missing. Equal values may be shown once. After the bases stand the sugars from the 5' end (letter, count) and the backbone: PS all phosphorothioate, else s phosphorothioate and o phosphodiester by linkage. Methylation of C is not given here. e = 2'-O-(2-methoxyethyl) (MOE); k = constrained ethyl (cEt); d = 2'-deoxy (DNA)

The data set addresses IRF4. Particulars: ASO.

ATGGAACAGTAACTTG (sugars k3 d10 k3, PS): the target mRNA inhibition (MM.1R, 1 µM) came out at 3%.

In the case of TCTTGAATAGAGGAAT (sugars k3 d10 k3, PS), the target mRNA inhibition (SK-MEL-28, 4 µM) came to 42%.

Take TAGTCGCGCAAGTCTA (sugars k3 d10 k3, PS): the target mRNA inhibition (SK-MEL-28, 4 µM) was -8%. With “CCTCAGTTTGTGAAGC (sugars k3 d9 k3 e1, PS)”, the target mRNA inhibition (MM.1R, 1 µM) came out at 2%. On to TGACAAGAACTGCTGT (sugars k3 d10 k3, PS), for which the target mRNA inhibition (SK-MEL-28, 4 µM) worked out at 18%.

As for “CTGCTTGAGGTTTTCC (sugars e1 k2 d9 k2 e2, PS)”, the target mRNA inhibition reads like this: (MM.1R, 0.074 µM) 6%; (MM.1R, 0.222 µM) 21%; (MM.1R, 0.666 µM) 38%; (MM.1R, 1 µM) 52%; (MM.1R, 2 µM) 60%. GTAGAGTGAGATGCGG (sugars k3 d10 k3, PS): the target mRNA inhibition (MM.1R, 0.0625 µM) is -4%; the target mRNA inhibition (MM.1R, 0.25 µM) came to 16%; the target mRNA inhibition (MM.1R, 1 µM) is 51% and 40%; the target mRNA inhibition (MM.1R, 4 µM) is 70%. AACCAGCACAGTTCTC (sugars k3 d10 k3, PS): the target mRNA inhibition (SK-MEL-28, 4 µM) was -18%. The same measure, in the same setting: the result for TACACTTTGTACGGGT (sugars k3 d10 k3, PS) reads 28%; that for GGCACGAGGAAGCATA (sugars k3 d10 k3, PS), 62%.

For CCACATTAGCAATTAG (sugars k3 d10 k3, PS), under “SK-MEL-28, 4 µM”, the target mRNA inhibition worked out at 19%. Turning to AGCCCTTGCTGCAAAT (sugars k3 d10 k3, PS), the target mRNA inhibition (MM.1R, 1 µM) is -11%. As to CCAAGGATAACCTGAA (sugars k3 d10 k3, PS), the target mRNA inhibition (SK-MEL-28, 4 µM) was 44%. CGCATTGCTAGATTCT (sugars k3 d10 k3, PS): the target mRNA inhibition by setting is: (MM.1R, 0.0625 µM) -9%; (MM.1R, 0.25 µM) 4%; (MM.1R, 1 µM) 37% and 27%; (MM.1R, 4 µM) 55%. Take CGGAACTTTCCTTTAA (sugars k3 d10 k3, PS): where the note is “SK-MEL-28, 4 µM”, the target mRNA inhibition was found to be 37%. As to GCAAGTCTACAGCCCC (sugars k3 d10 k3, PS), the target mRNA inhibition is -7% (MM.1R, 0.0625 µM); 7% (MM.1R, 0.25 µM); 68% (MM.1R, 4 µM). On to “GAAGCATTTTATCATC (sugars kkdddddddddkdkdk, PS)”, for which the target mRNA inhibition (MM.1R, 1 µM) was determined as 1%. Regarding TTTCACATGATAAGGC (sugars k3 d10 k3, PS), where the note is “SK-MEL-28, 4 µM”, the target mRNA inhibition came to 43%. AGCAAGTGTCTTCCAC (sugars k3 d10 k3, PS): the target mRNA inhibition (SK-MEL-28, 4 µM) is 75% and 72%. The same measure, in the same setting: the result for CACGAAACACAGTCTG (sugars k3 d10 k3, PS) reads 52%; that for GGCCGGAGACCTTGAA (sugars k3 d10 k3, PS), 3%. In the case of CCACTGGCGGAGCTTC (sugars k3 d10 k3, PS), under “SK-MEL-28, 4 µM”, the target mRNA inhibition stood at 36%. Consider AGCTGAATGCTCTCCA (sugars k3 d10 k3, PS), for which, where the note is “SK-MEL-28, 4 µM”, the target mRNA inhibition was determined as 78%.

Regarding GCGGAGGACCTCGCCT (sugars k3 d10 k3, PS), where the note is “SK-MEL-28, 4 µM”, the target mRNA inhibition stood at 8%. For the sequence TCCTGAATTTACAGCA (sugars k3 d10 k3, PS), the target mRNA inhibition (SK-MEL-28, 4 µM) turned out to be 48%.

In the case of AGACAAATCTTCTGCC (sugars k3 d10 k3, PS), the target mRNA inhibition (SK-MEL-28, 4 µM) was -4%. As for “GCACATCAATGTTTTA (sugars kddddddddddkekek, PS)”, the target mRNA inhibition (MM.1R, 1 µM) is 13% and 0%. In the case of “TACTGTTACCGATGCT (sugars kkdddddddddkdkdk, PS)”, where the note is “MM.1R, 1 µM”, the target mRNA inhibition was 7% and 18%.

On to AACTGAGAGTGCGAGG (sugars k3 d10 k3, PS), for which, under “SK-MEL-28, 4 µM”, the target mRNA inhibition came out at 1%. As for CGACAGTCCGGTTAGC (sugars k3 d10 k3, PS), the target mRNA inhibition (SK-MEL-28, 4 µM) stood at 11%. Turning to GTCTTCCACAAGAACT (sugars k3 d10 k3, PS), where the note is “SK-MEL-28, 4 µM”, the target mRNA inhibition stood at 47%. Regarding GTACAGGACAGGTAAA (sugars k3 d10 k3, PS), for the setting “SK-MEL-28, 4 µM”, the target mRNA inhibition worked out at 25%. Still for that read-out and setting: the result for GTTTATTTCCTACTCT (sugars k3 d10 k3, PS) reads 16%. For “TGCTTGAGGTTTTCCT (sugars kddddddddddkekek, PS)”, the target mRNA inhibition (MM.1R, 1 µM) came to 36%. Regarding ACCTTAACCAATCCCA (sugars k3 d10 k3, PS), the target mRNA inhibition (SK-MEL-28, 4 µM) worked out at 71%. Turning to ATCCTTAATTATGCAG (sugars k3 d10 k3, PS), the target mRNA inhibition (SK-MEL-28, 4 µM) is 39%. Turning to CCGTCCGCGCCCGCGC (sugars k3 d10 k3, PS), the target mRNA inhibition (SK-MEL-28, 4 µM) is 61%. On to ATAGTAGGTAAGATCT (sugars k3 d10 k3, PS), for which, under “SK-MEL-28, 4 µM”, the target mRNA inhibition is -13%. In the case of AACTAGCAGGGCACGC (sugars k3 d10 k3, PS), the target mRNA inhibition (MM.1R, 1 µM) was 2%. Take GTCTGAGGGAATCTGC (sugars k3 d10 k3, PS): the target mRNA inhibition (SK-MEL-28, 4 µM) amounted to 49%. Regarding GAGGACTTATTTGTGG (sugars k3 d10 k3, PS), the target mRNA inhibition (MM.1R, 1 µM) is 22%.

As to TAATACCTACCTGCCC (sugars k3 d10 k3, PS), under “SK-MEL-28, 4 µM”, the target mRNA inhibition came to 4%.

Turning to TATCCATTAGAAAAGC (sugars k3 d10 k3, PS), the target mRNA inhibition (SK-MEL-28, 4 µM) was 63%. For ACCCACGAAGATTCAA (sugars k3 d10 k3, PS), the target mRNA inhibition (MM.1R, 1 µM) is -17%.

For CCACACAAGTCTTAGG (sugars k3 d10 k3, PS), the target mRNA inhibition (MM.1R, 1 µM) came to 15%. In the case of CCCAAGCCTTGAAGAG (sugars k4 d8 k4, PS), the target mRNA inhibition (SK-MEL-28, 4 µM) turned out to be 22%. For the sequence TAACAGGCTATCAGGA (sugars k3 d10 k3, PS), the target mRNA inhibition (SK-MEL-28, 4 µM) was found to be 26%. Take GTAAGTGATAGGTATA (sugars k3 d10 k3, PS): where the note is “SK-MEL-28, 4 µM”, the target mRNA inhibition is 76% and 68%.

“AAGTGTCTAAAGTCCC (sugars kdddddddddkekeke, PS)”: the target mRNA inhibition (MM.1R, 1 µM) is 4% and 5%. Turning to CTTGGTCAATTTTCAC (sugars k3 d10 k3, PS), the target mRNA inhibition (SK-MEL-28, 4 µM) turned out to be 53%. On to ACACAAGTGGCCTTCC (sugars k3 d10 k3, PS), for which the target mRNA inhibition (SK-MEL-28, 4 µM) was found to be 31%. As to GATTATATACTGGTTG (sugars k3 d10 k3, PS), the target mRNA inhibition (SK-MEL-28, 4 µM) was 59%. Turning to AGAGACGCGGTGAGAG (sugars k3 d10 k3, PS), where the note is “MM.1R, 1 µM”, the target mRNA inhibition was -20%. The same measure, in the same setting: the value for GGTACGGGATTTCCGG (sugars k3 d10 k3, PS) was 12%; that for “TGTGATAGCTGAGCTG (sugars kkdddddddddekeke, PS)” was 41%; that for “TTATGTTAGCCAATTC (sugars kkddddddddddkeke, PS)” was 11% and 16%. Take TTTGAGACTTAACCCA (sugars k3 d10 k3, PS): under “MM.1R, 1 µM”, the target mRNA inhibition was 31%. Take ATCACGAGGTTGCCGA (sugars k3 d10 k3, PS): the target mRNA inhibition (SK-MEL-28, 4 µM) was found to be 60%. “GTGATGTCAGGTTTTC (sugars kdddddddddkekeke, PS)”: the target mRNA inhibition (MM.1R, 1 µM) came to 30%. Take ACACACAAGTGGCCTT (sugars k3 d10 k3, PS): the target mRNA inhibition (SK-MEL-28, 4 µM) turned out to be 44%.

Take AGAGGTGCCTTCTTTA (sugars k3 d10 k3, PS): the target mRNA inhibition (MM.1R, 1 µM) stood at 18%.

As for TGGAACAGTAACTTGA (sugars k3 d10 k3, PS), the target mRNA inhibition (SK-MEL-28, 4 µM) amounted to 12%. Same read-out and setting: the value for TTTATAGTAGGTAAGA (sugars k3 d10 k3, PS) was 6%.

Regarding “AAGTTCATGTAAAGTC (sugars kkdddddddddkdkdk, PS)”, under “MM.1R, 1 µM”, the target mRNA inhibition is 32% and 34%.

In the case of AGACAGGTCTCTACCT (sugars k3 d10 k3, PS), the target mRNA inhibition (MM.1R, 1 µM) was -12%. As to “AGCTTGATAAAGGCTG (sugars k2 d9 e3 k2, PS)”, the target mRNA inhibition (MM.1R, 1 µM) is 3%. Turning to ATGAGTCGGTCACTTG (sugars k3 d10 k3, PS), the target mRNA inhibition (SK-MEL-28, 4 µM) is 78% and 72%.

On to CGCTCAACCAGTTCCT (sugars k3 d10 k3, PS), for which, under “SK-MEL-28, 4 µM”, the target mRNA inhibition came to 28%. In the case of TTCGAGGTGATTCTCG (sugars k3 d10 k3, PS), the target mRNA inhibition (SK-MEL-28, 4 µM) came to 5%. As to TGGATCCTGAGAGTAA (sugars k3 d10 k3, PS), the target mRNA inhibition (MM.1R, 1 µM) was found to be 0%. With CTTCATTTACTGTTAC (sugars k3 d10 k3, PS), the target mRNA inhibition (SK-MEL-28, 4 µM) was 31%. With ACGCAGCCTCTAAGAA (sugars k3 d10 k3, PS), the target mRNA inhibition (SK-MEL-28, 4 µM) came out at 25%.

Turning to ATCTATAAGATGTATA (sugars k4 d8 k4, PS), the target mRNA inhibition (SK-MEL-28, 4 µM) turned out to be 36%. For the sequence “GTGATAGCTGAGCTGA (sugars kdddddddddkekeke, PS)”, the target mRNA inhibition (MM.1R, 1 µM) stood at 16%. As to AAATATCGCCCATGAG (sugars k3 d10 k3, PS), under “SK-MEL-28, 4 µM”, the target mRNA inhibition turned out to be 39%. On to “GCACATCAATGTTTTA (sugars kkdddddddddkdkdk, PS)”, for which the target mRNA inhibition (MM.1R, 1 µM) is 11% and 7%.

With ACACTTTGTACGGGTC (sugars k3 d10 k3, PS), the target mRNA inhibition (SK-MEL-28, 4 µM) was 56%. As to GCTCAACCTGGAAGGA (sugars k3 d10 k3, PS), for the setting “SK-MEL-28, 4 µM”, the target mRNA inhibition amounted to 25%.

In the case of GAACGCACGGACGAAC (sugars k3 d10 k3, PS), for the setting “SK-MEL-28, 4 µM”, the target mRNA inhibition worked out at 18%. On to TCTCCAAAGCATAGAG (sugars k3 d10 k3, PS), for which, under “MM.1R, 1 µM”, the target mRNA inhibition was -8%. Same read-out and setting: the value for “CTCTATAGTGTTCCAG (sugars kdddddddddkekeke, PS)” was 11%. Take GGAAGCACTGGCATCG (sugars k3 d10 k3, PS): for the setting “SK-MEL-28, 4 µM”, the target mRNA inhibition worked out at 55%. With “ACAGTGACTTGCATCC (sugars kkdddddddddkekek, PS)”, the target mRNA inhibition (MM.1R, 1 µM) was 32%. Take GCACAGGCGCGGACGC (sugars k3 d10 k3, PS): the target mRNA inhibition (MM.1R, 1 µM) was -6%. Regarding ACAAAAGGTTCCCGCG (sugars k3 d10 k3, PS), under “SK-MEL-28, 4 µM”, the target mRNA inhibition stood at 3%. Turning to GAAGGATGATCAGCTT (sugars k3 d10 k3, PS), the target mRNA inhibition (SK-MEL-28, 4 µM) is 26%.

For CGCCCATGAGTTGAAA (sugars k3 d10 k3, PS), the target mRNA inhibition (MM.1R, 1 µM) was found to be 13%. Take “ACACTTTTAGAGAGGA (sugars k3 d9 k3 e1, PS)”: the target mRNA inhibition (MM.1R, 1 µM) stood at 29%.

As for GCATTTGGAAAAAGCC (sugars k3 d10 k3, PS), the target mRNA inhibition (SK-MEL-28, 4 µM) is 71%. In the case of GGGCTTCCTAGGTTTC (sugars k3 d10 k3, PS), the target mRNA inhibition (SK-MEL-28, 4 µM) amounted to 39%.
